Drawing on patent publication US20110275813A1, “Bicylic 1,3-diones and Their Use as Insecticides, Acaricides and/or Fungicides” (Bayer Cropscience AG, priority 2009, published 2011), this text covers Efficacy in % and mortality for three compounds.

The structures appear in SMILES notation. Where only a bound is given, the exact number is not on record here.

What all share (format): in vivo
Test [1] concerns Sphaerotheca fuliginea. The test is described as follows: Sphaerotheca test (cucumber)/preventive. The conditions noted are these: preventive, 7 days after inoculation. The protocol:
Sphaerotheca Test (Cucumber)/Preventive
Solvent: 49 parts by weight of N,N-Dimethylformamide
Emulsifier: 1 part by weight of Alkylarylpolyglycolether
To produce a suitable preparation of active compound, 1 part by weight of active compound is mixed with the stated amounts of solvent and emulsifier, and the concentrate is diluted with water to the desired concentration.
To test for preventive activity, young plants are sprayed with the preparation of active compound at the stated rate of application. One day after this treatment, the plants are inoculated with an aqueous spore suspension of Sphaerotheca fuliginea. Then the plants are placed in a greenhouse at approximately 23° C. and a relative atmospheric humidity of approximately 70%.
The test is evaluated 7 days after the inoculation. 0% means an efficacy which corresponds to that of the control, while an efficacy of 100% means that no disease is observed.

Test [2] concerns Spodoptera frugiperda. In words: Spodoptera frugiperda test (SPODFR spray application). The settings on record: 168 h, sprayed maize leaf sections, after 7 days. From the text:
Spodoptera frugiperda—Test (SPODFR Spray Application)
(§1) Solvent: 78.0 parts by weight acetone • 1.5 parts by weight dimethylformamide
(§2) Emulsifier: 0.5 parts by weight alkylarylpolyglycolether
To produce a suitable preparation of the active compound, 1 part by weight of active compound is mixed with the stated amount of solvent and emulsifier, and the concentrate is dilutes with emulsifier-containing water to the desired concentration. Maize (Zea mais) leaf sections are sprayed with a preparation of the active ingredient of the desired concentration. Once dry, the leaf sections are infested with fall armyworm larvae (Spodoptera frugiperda).
After 7 days mortality in % is determined. 100% means that all caterpillars have been killed and 0% means that none of the caterpillars have been killed.

Test [3] relates to Phaedon cochleariae. The test is described as follows: Phaedon cochleariae test (PHAECO spray application). The settings on record: 168 h, sprayed Chinese cabbage leaf-disks, after 7 days. As to the method: Phaedon cochleariae—Test; (PHAECO Spray Application)
Solvent: 78.0 parts by weight of acetone • • 1.5 parts by weight of dimethylformamide
Emulsifier: 0.5 parts by weight of alkylaryl polyglycolether
To produce a suitable preparation of active compound, 1 part by weight of active compound is mixed with the stated amount of solvent and emulsifier, and the concentrate is diluted with emulsifier-containing water to the desired concentration. Chinese cabbage (Brassica pekinesis) leaf-disks are sprayed with a preparation of the active ingredient of the desired concentration. Once dry, the leaf disks are infested with mustard beetle larvae (Phaedon cochleariae).
After 7 days mortality in % is determined. 100% means that all beetle larvae have been killed and 0% means that none of the beetle larvae have been killed.

In test [4] the test system is Myzus persicae. In words: Myzus persicae test (MYZUPE spray application). The conditions noted are these: 144 h, sprayed Chinese cabbage leaf-disks, after 6 days. The protocol:
Myzus persicae—Test; (MYZUPE Spray Application)
as §1, §2
To produce a suitable preparation of active compound, 1 part by weight of active compound is mixed with the stated amount of solvent and emulsifier, and the concentrate is diluted with emulsifier-containing water to the desired concentration. Chinese cabbage (Brassica pekinesis) leaf-disks infected with all instars of the green peach aphid (Myzus persicae), are sprayed with a preparation of the active ingredient at the desired concentration.
After 6 days mortality in % is determined. 100% means that all aphids have been killed; 0% means that none of the aphids have been killed.

Test [5] concerns Tetranychus urticae. In words: Tetranychus urticae test; OP-resistant (TETRUR spray application). The conditions noted are these: 120 h, spray on infested French beans, after 5 days. The protocol:
Tetranychus urticae—Test; OP-Resistant (TETRUR Spray Application)
as §1, §2
To produce a suitable preparation of active compound, 1 part by weight of active compound is mixed with the stated amount of solvent and emulsifier, and the concentrate is diluted with emulsifier-containing water to the desired concentration. French beans (Phaseolus vulgaris) which are heavily infested with all stages of the two spotted spidermite (Tetranychus urticae), are sprayed with a preparation of the active ingredient at the desired concentration.
After 5 days mortality in % is determined. 100% means that all spider mites have been killed and 0% means that none of the spider mites have been killed.

In general, mortality refers to the share of the test organisms that died. With `Cc1ccc(-c2ccc(Cl)cc2)cc1C1=C(O)[C@H]2CC[C@H](C2)C1=O` [Compound T1], the Efficacy in % in test [1] (500 ppm) was found to be 95%. Moreover, the mortality at 500 g/ha in test [2] (500 g/ha), in test [3], in test [4] and in test [5] (500 g/ha) was no less than 80% each time.
`CC12CCC(C(=O)C(c3cc(-c4ccc(Cl)cc4)ccc3Cl)=C1O)C2(C)C` (stereo not drawn) [T 114] returned an Efficacy in % in test [1] (500 ppm) of 90%. Further, the mortality at 20 g/ha in test [5] (20 g/ha) is no less than 80%.
The compound `Cc1ccc(-c2ccc(Cl)cc2)cc1C1=C(O)C2(C)CCC(C1=O)C2(C)C` (stereo not drawn) [T 115] had an Efficacy in % in test [1] (250 ppm) of 80%. The mortality at 100 g/ha in test [2] (100 g/ha) was no less than 80%.
